Measured values reported in patent publication US12208088B2 (Genentech, Inc., priority 2018, dated 2025).

molecular target: HPK1 (Homo sapiens (Human), UniProt Q92918); assay: HPK1 Lantha binding assay ("Lanth"); conditions: binding assays; Morrison Ki fit
Method: Example B2: HPK1 Lantha Binding Assay (“Lanth”)
Procedure: I. Compound Dilution:
The compounds to be tested were diluted by preparing 12.5 uL/well of 5 mM compound (100×) in columns 2 and 13 and 10 ul/well of DMSO in columns 3-12, 14-23, and wells A1-H1 and I24-P24 of the compound plate using a Bravo liquid handling platform. For the reference compound, the top concentration was 1 mM. To the plate was added 10 ul 2 mM staurosporine in wells J1-P1 and A24-H24. A 11 point 5-fold compound serial dilution was performed using the Bravo liquid handling platform. From the plate were transferred 2.5 ul of the solutions from column 2 and column 13 to the 10 ul of DMSO in columns 3 and 14 & so on. The compound plate was centrifuged at 2500 rpm for 1 min. From the compound plate was transferred 80 nl of the compounds into an assay plate using the Echo liquid handler system. One compound plate makes two assay plates. Each assay plate is sealed and stored in an N2 cabinet.
The following assay concentrations and times were used: 2 nM HPK1, 2 nM Eu-Anti-GST Ab, and 15 nM Tracer222, with 60 min incubation time.
III. HPK Lantha Binding Assay:
For the binding assay, 4 ul 2×HPK1 and Eu-anti-GST antibody were added to each well of the assay plate using a Multidrop reagent dispenser. The solutions were incubated in a 23 C incubator for 1 h. To each well of the assay plate was added 4 ul 2× Tracer-222 using a Multidrop reagent dispenser. The solutions were again incubated in a 23 C incubator for 1 h. The results of the assay were read using an Envision plate reader with the following parameters: TR_FRET, 340 ex/615 and 665em; 100 usec Delay; and 200 usec integration.
Compound Ki was analyzed using Morrison ki fit model in XL-fit • a. fit=(1−((((E+x)+(Ki*(1+(S/Kd))))−(((((E+x)+(Ki*(1+(S/Kd))))^2)−((4*E)*x))^0.5))/(2*E))) • res=(y−fit) • b. Parameters: • E=enzyme concentration • S=Tracer222 concentration, Kd=Tracer222 Kd • All measurements reported using the same units (uM)
Exemplary compounds were tested in the binding assays.

Sequence of HPK1 (Q92918 1-346 limits assumed): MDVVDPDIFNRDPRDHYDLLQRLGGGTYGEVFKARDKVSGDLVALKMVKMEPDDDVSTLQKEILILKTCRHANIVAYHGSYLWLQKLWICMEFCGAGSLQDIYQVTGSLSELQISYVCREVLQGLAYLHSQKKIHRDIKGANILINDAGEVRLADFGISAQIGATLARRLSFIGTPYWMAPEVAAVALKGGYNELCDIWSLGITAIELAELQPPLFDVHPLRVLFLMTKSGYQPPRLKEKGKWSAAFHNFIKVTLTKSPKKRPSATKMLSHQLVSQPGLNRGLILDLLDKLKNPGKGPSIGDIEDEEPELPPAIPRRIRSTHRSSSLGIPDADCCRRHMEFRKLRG

Row | Ki [nM] | SMILES
1 | 48.3 | CN(C)C(=O)c1c(N)ccc(-c2cnc3c(c2)[C@]2(CC[C@H](O)CC2)CN3)c1F [Compound 111a, 6-Amino-2-fluoro-3-((1s,4s)-4-hydroxy-1′,2′-dihydrospiro[cyclohexane-1,3′-pyrrolo[2,3-b]pyridin]-5′-yl)-N,N-dimethylbenzamide]
2 | 6.6 | CN(C)C(=O)c1c(N)ccc(-c2cnc3c(c2Cl)C2(C=C(c4cccnc4)CC2)CN3)c1F (stereo not shown) [Compound 112, 6-Amino-3-(4′-chloro-3-(pyridin-3-yl)-1′,2′-dihydrospiro[cyclopentane-1,3′-pyrrolo[2,3-b]pyridin]-2-en-5′-yl)-2-fluoro-N,N-dimethylbenzamide]
3 | 321 | Cc1[nH]ncc1-c1cnc2c(c1)C1(CC1)CN2 [Compound 321, 5′-(5-Methyl-1H-pyrazol-4-yl)-1′,2′-dihydrospiro[cyclopropane-1,3′-pyrrolo[2,3-b]pyridine]]
4 | 21.6 | CN(CCO)C(=O)c1c(N)ccc(-c2cnc3c(c2)C2(CC2)CN3)c1F [Compound 7, 6-amino-3-(1′,2′-dihydrospiro[cyclopropane-1,3′-pyrrolo[2,3-b]pyridin]-5′-yl)-2-fluoro-N-(2-hydroxyethyl)-N-methylbenzamide]
5 | 46.7 | CN(C)C(=O)c1c(N)ccc(-c2cnc3c(c2Cl)[C@]2(CC[C@@H](C(N)=O)CC2)CN3)c1F [Compound 235a, (1r,4r)-5′-(4-Amino-3-(dimethylcarbamoyl)-2-fluorophenyl)-4′-chloro-1′,2′-dihydrospiro[cyclohexane-1,3′-pyrrolo[2,3-b]pyridine]-4-carboxamide]
6 | 110 | Cc1c(CC#N)ccnc1-c1cccc(-c2cnc3c(c2Cl)[C@]2(CC[C@](C)(C(N)=O)C2)CN3)c1F (single isomer, unassigned) [Compound 267a]
7 | 521 | CN(C)C(=O)c1cc(CO)cc(-c2cnc3c(c2)C2(CC2)CN3)c1 [Compound 16, 3-(1′,2′-dihydrospiro[cyclopropane-1,3′-pyrrolo[2,3-b]pyridin]-5′-yl)-5-(hydroxymethyl)-N,N-dimethylbenzamide]
8 | 45.9 | Clc1ccc2[nH]cc(-c3cnc4c(c3)C3(CC3)CN4)c2c1 [Compound 312, 5′-(5-Chloro-1H-indol-3-yl)-1′,2′-dihydrospiro[cyclopropane-1,3′-pyrrolo[2,3-b]pyridine]]
9 | 3.93 | CN(C)C(=O)c1c(N)ccc(-c2cnc3c(c2Cl)[C@]2(CC[C@](C)(C#N)C2)CN3)c1F (single isomer, unassigned) [Compound 131a]
10 | 19.9 | CN(C)C(=O)c1c(N)ccc(-c2cnc3c(c2Cl)[C@@]2(CC[C@@H](c4cccnc4)C2)CN3)c1F [Compound 145d, 6-Amino-3-((1S,3R)-4′-chloro-3-(pyridin-3-yl)-1′,2′-dihydrospiro[cyclopentane-1,3′-pyrrolo[2,3-b]pyridin]-5′-yl)-2-fluoro-N,N-dimethylbenzamide]
11 | 6.65 | CN(C)C(=O)c1c(N)ccc(-c2cnc3c(c2Cl)[C@]2(CC[C@H](n4cc(C(F)(F)F)cn4)C2)CN3)c1F (relative stereo) [Compound 164a, 6-Amino-3-((1R,3S)-4′-chloro-3-(4-(trifluoromethyl)-1H-pyrazol-1-yl)-1′,2′-dihydrospiro[cyclopentane-1,3′-pyrrolo[2,3-b]pyridin]-5′-yl)-2-fluoro-N,N-dimethylbenzamide]
12 | 5.78 | CC[C@H]1C[C@@]12CNc1ncc(-c3ccc(N)c(C(=O)N(C)C)c3F)cc12 (single isomer, unassigned) [Compound 243a]
13 | 98.7 | O=C1COCCN1c1cccc(-c2cnc3c(c2)C2(CCC2)CN3)c1 [Compound 5, 4-(3-(1′,2′-Dihydrospiro[cyclobutane-1,3′-pyrrolo[2,3-b]pyridin]-5′-yl)phenyl)morpholin-3-one]
14 | 28.9 | Cc1c(-c2ccc(N)c(C(=O)N(C)C)c2F)cnc2c1C1(CCC1)CN2 [Compound 53, 6-Amino-2-fluoro-N,N-dimethyl-3-(4′-methyl-1′,2′-dihydrospiro[cyclobutane-1,3′-pyrrolo[2,3-b]pyridin]-5′-yl)benzamide]
15 | 100 | O=C1CNCCN1c1cccc(-c2cnc3c(c2)C2(CC2)CN3)c1 [Compound 42, 1-(3-(1′,2′-Dihydrospiro[cyclopropane-1,3′-pyrrolo[2,3-b]pyridin]-5′-yl)phenyl)piperazin-2-one]
16 | 38 | CC(C)[C@@H]1C[C@]12CNc1ncc(-c3ccc(N)c(C(=O)N(C)C)c3F)cc12 [Compound 234b, 6-Amino-2-fluoro-3-((1S,2S)-2-isopropyl-1′,2′-dihydrospiro[cyclopropane-1,3′-pyrrolo[2,3-b]pyridin]-5′-yl)-N,N-dimethylbenzamide]
17 | 32.6 | O=C1CNCCN1c1cccc2c(-c3cnc4c(c3)C3(CC3)CN4)c[nH]c12 [Compound 303, 1-(3-(1′,2′-Dihydrospiro[cyclopropane-1,3′-pyrrolo[2,3-b]pyridin]-5′-yl)-1H-indol-7-yl)piperazin-2-one]
18 | 52.3 | CN(C)C(=O)c1cccc2c(-c3cnc4c(c3Cl)C3(CC3)CN4)c[nH]c12 [Compound 298, 3-(4′-Chloro-1′,2′-dihydrospiro[cyclopropane-1,3′-pyrrolo[2,3-b]pyridin]-5′-yl)-N,N-dimethyl-1H-indole-7-carboxamide]
19 | 32.5 | CN(C)C(=O)c1c(N)ccc(-c2cnc3c(c2Cl)[C@]2(CC[C@@](O)(CC#N)C2)CN3)c1F (relative stereo) [Compound 109c, 6-Amino-3-((1R,3S)-4′-chloro-3-(cyanomethyl)-3-hydroxy-1′,2′-dihydrospiro[cyclopentane-1,3′-pyrrolo[2,3-b]pyridin]-5′-yl)-2-fluoro-N,N-dimethylbenzamide]
20 | 68.2 | CN(C)C(=O)Cc1cccc2c(-c3cnc4c(c3Cl)C3(CC3)CN4)c[nH]c12 [Compound 301, 2-(3-(4′-Chloro-1′,2′-dihydrospiro[cyclopropane-1,3′-pyrrolo[2,3-b]pyridin]-5′-yl)-1H-indol-7-yl)-N,N-dimethylacetamide]
21 | 945 | Cn1cc([C@@H]2CCCCN2C(=O)c2cccc(-c3cnc4c(c3)C3(CC3)CN4)c2F)cn1 (single isomer, unassigned) [Compound 175b]
22 | 8.12 | CN(C)C(=O)c1c(N)ccc(-c2cnc3c(c2Cl)[C@]2(CC[C@](C)(O)C2)CN3)c1F (relative stereo) [Compound 82a, 6-Amino-3-((1R,3S)-4′-chloro-3-hydroxy-3-methyl-1′,2′-dihydrospiro[cyclopentane-1,3′-pyrrolo[2,3-b]pyridin]-5′-yl)-2-fluoro-N,N-dimethylbenzamide]
23 | 276 | CS(=O)(=O)c1ccc(-c2cnc3c(c2Cl)C2(CC=CC2)CN3)cc1 [Compound 186, 4′-Chloro-5′-(4-(methylsulfonyl)phenyl)-1′,2′-dihydrospiro[cyclopentane-1,3′-pyrrolo[2,3-b]pyridin]-3-ene]
24 | 209 | OCCn1cc(-c2cnc3c(c2Cl)C2(CC=CC2)CN3)cn1 [Compound 317, 2-(4-(4′-Chloro-1′,2′-dihydrospiro[cyclopentane-1,3′-pyrrolo[2,3-b]pyridin]-3-en-5′-yl)-1H-pyrazol-1-yl)ethan-1-ol]
25 | 112 | Cn1cc([C@@H]2CCCCN2C(=O)c2cccc(-c3cnc4c(c3Cl)C3(CC=CC3)CN4)c2F)cn1 (single isomer, unassigned) [Compound 240b]
